Test results published in publication PMC4805166, “Synthetic Cyclolipopeptides Selective against Microbial, Plant and Animal Cell Targets by Incorporation of D-Amino Acids or Histidine” (PLoS ONE, 2016).
Several values for one entry are separate records, joined by “and”; a condition that tells them apart may be missing. Identical values can stand only once. Like-named read-outs stand apart in the source and are kept apart here. Where a SMILES comes first, the peptide text is derived from it. Side-chain parts run from the residue outwards. [ ]: non-standard residue; d: D form. The star is where a group is joined. Hexanoyl = CCCCCC(=O)*; Butyryl = CCCC(=O)*

Key:
[1] = system: Xanthomonas axonopodis pv. vesicatoria 2133–2; format: cell-based; conditions: TSB, 25°C, 48 h, OD 600 nm; tested at 3.1, 6.2, 12.5, 25, 50 μM; three replicates, experiment repeated twice; MIC = lowest concentration with no growth
In short: (§1)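 Peptide dilutions (stocks 500–31.1 μM) mixed 1:10 with 10^8 CFU/mL bacterial suspension in TSB. Incubated 25 °C, OD600 read hourly for 48 h, triplicates, repeated twice. MIC: lowest concentration with no growth at end.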

[2] = system: Pseudomonas syringae pv. syringae EPS94; format: cell-based; conditions: 48 h
In short: as §1

[3] = system: Erwinia amylovora PMV6076; assay: MIC, in vitro growth inhibition; format: cell-based; conditions: TSB, 25°C, 48 h, OD 600 nm; tested at 3.1, 6.2, 12.5, 25, 50 μM; three replicates, experiment repeated twice; MIC = lowest concentration with no growth
In short: as §1

[4] = system: erythrocyte suspensions of horse blood; conditions: horse erythrocytes 5% vol/vol, TRIS buffer pH 7.2, 1 h at 37°C, absorbance 540 nm, relative to melittin 100 μM, ± confidence interval (α = 0.05); for Hemolysis (%) 150 µM: 150 µM peptide; for Hemolysis (%) 250 µM: 250 µM peptide;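 as to all read-outs here: Read-out is hemoglobin release into the supernatant, with a buffer-only blank subtracted as the 0% baseline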
Protocol: Blood was centrifuged at 6000g for 5 min, washed three times with TRIS buffer (10 mM TRIS, 150 mM NaCl, pH 7.2) and diluted.
Compounds were solubilized in TRIS buffer and mixed with horse erythrocytes and the final concentrations tested were 250 and 150 μM. The mixture was incubated under continuous shaking for 1 h at 37°C. Then, the tubes were centrifuged at 3500g for 10 min, 80 μL aliquots of the supernatant transferred to 100-well microplates (Bioscreen), diluted with 80 μL water, and the absorbance measured at 540 nm (Bioscreen). Complete hemolysis was obtained by the addition of melittin at 100 μM (Sigma-Aldrich Corporation, Madrid, Spain). The percentage of hemolysis (H) was calculated using the equation: H = 100×[(Op−Ob)/(Om−Ob)], where Op was the density for a given compound concentration, Ob for the buffer, and Om for the melittin positive control.

[5] = system: X. axonopodis pv. vesicatoria; assay: Bactericidal activity (killing assay); format: cell-based, Xanthomonas axonopodis pv. vesicatoria; conditions: 5 μM peptide, LB broth, aliquots every 30 min during 3 h, viable counts; triplicates
Protocol: In a total volume of 5 mL, 4 mL of Luria-Bertani (LB) broth were mixed with 0.5 ml of a suspension of X. axonopodis pv. vesicatoria adjusted to 10^8 CFU mL^-1 and 0.5 mL of the peptide solution at 50 μM (final concentration at 5 μM). Aliquots of 500 μL were removed at 30-min intervals during 3 h and the appropriate dilutions were spread onto LB agar using a spiral plater (Eddy Jet; IUL instruments, Spain). Triplicates were performed and colonies were counted after 48 h of incubation at 25°C with an automatic counter (Flash and Go; IUL instruments, Spain) by incorporating the software CounterMat version 5.0.

[6] = system: Fusarium oxysporum f. sp. lycopersici FOL 3 race 2; assay: MIC, antifungal growth inhibition; format: cell-based
In short: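 Microconidia are grown on PDA at 25 °C and adjusted to 10^4 conidia/mL. Peptide stocks of 500, 250, 125, 62.5 and 31.1 µM (stock, not final) are mixed with conidia in double-concentrated PDB with 0.003% chloramphenicol, in triplicate, and incubated at 20 °C. OD600 is read every 2 h for seven days, and MIC is the lowest concentration with no growth at the end.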

tobacco leaves = assay: Phytotoxicity by infiltration of tobacco leaves; format: in vivo; conditions: 250 μM, 100 μL infiltrated into mesophyll of tobacco leaves, 48 h after infiltration; at least three inoculations
Protocol: Peptide solutions of 50, 100, 150 and 250 μM were infiltrated (100 μL) into the mesophylls of fully expanded tobacco leaves. Six independent inoculations were carried out in a single leaf, and at least three independent inoculations were performed per peptide and concentration randomly distributed in diferent leaves and plants. Control infiltrations with water (negative control) or mellitin (positive control) at the same molar concentration were performed. The appearance of symptoms on the leaves was followed for 48 h after infiltration and measured as a lesion diameter.

[7] = system: E. amylovora, P. syringae pv. syringae, X. axonopodis pv. vesicatoria and F. oxysporum; format: cell-based
Protocol: The following plant pathogenic bacterial strains were used: Erwinia amylovora PMV6076 (Institut National de la Recherche Agronomique, Angers, France), Pseudomonas syringae pv. syringae EPS94 (Institut de Tecnologia Agroalimentària, Universitat de Girona, Spain) and Xanthomonas axonopodis pv. vesicatoria 2133–2 (Instituto Valenciano de Investigaciones Agrarias, Valencia, Spain). All bacteria were stored in Luria Bertani (LB) broth supplemented with glycerol (20%) and maintained at -80°C. Bacteria were scrapped from LB agar after growing for 24–48 h at 25°C. The cell material was suspended in sterile water to obtain a suspension of 10^8 CFU mL^-1.
Fusarium oxysporum f. sp. lycopersici FOL 3 race 2 (ATCC 201829, American Type Culture Collection) was used as fungal pathogen. The strain was cultured on potato dextrose agar (PDA) plates (Difco) and microconidia were obtained after growth at 25°C. The concentration of conidia was determined using a hemacytometer and adjusted to 10^4 conidia mL^-1.
Lyophilized peptides were solubilized in sterile Milli-Q water to a final concentration of 1 mM and filter sterilized through a 0.22-μm pore filter. For minimum inhibitory concentration (MIC) assessment, dilutions of the compounds were made to obtain a stock concentration of […]. For antibacterial activity twenty microlitres of each dilution were mixed in a microtiter plate well with 20 μL of the corresponding suspension of the bacterial indicator, 160 μL of Trypticase Soy Broth (TSB) (BioMèrieux, France) to a total volume of 200 μL. For antifungal activity 20 μL of each stock solution were mixed in a microtiter plate well with 80 μL of the corresponding suspension of the fungal pathogen and 100 μL of double concentrated PDB to a total volume of 200 μL containing 0.003% w/v of choramphenicol.
Three replicates for each strain, compound and concentration were used. Microbial growth was determined by optical density measurement at 600 nm (Bioscreen C, Labsystem, Helsinki, Finland). For antibacterial activity microplates were incubated at 25°C with 20 sec shaking before hourly absorbance measurement for 48 h. For antifungal activity microplates were incubated at 20°C with 1 min shaking before absorbance measurement that were done every two hours during seven days. The experiment was repeated twice. The MIC was taken as the lowest compound concentration with no growth at the end of the experiment.

[8] = PDB with 0.003% chloramphenicol, 20°C, seven days, OD 600 nm, tested at 3.1, 6.2, 12.5, 25, 50 μM, three replicates, repeated twice

Compound | MIC Xav [1] | MIC Pss [2] | MIC Ea [3] | Hemolysis (%) 150 µM [4] | Bactericidal activity (kinetics of survival) [5] | MIC Fo [6, 8] | Phytotoxicity, size of the lesions (necrosis diameter) (tobacco leaves) | Hemolysis (%) 250 µM [4] | MIC Fo [6] | MIC against three pathogens ([7]; three of the four pathogens tested) | Antimicrobial activity, in words ([7]; authors' overall judgement over the pathogens tested)
CCCC(=O)N[C@@H](CCCCN)C(=O)N[C@@H](CC(C)C)C(=O)NCCCC[C@@H]1NC(=O)[C@H](CCCCN)NC(=O)[C@H](CC(C)C)NC(=O)[C@H](CCCCN)NC(=O)[C@H](CCCCN)NC(=O)[C@H](CCC(N)=O)NC(=O)[C@H](CC(C)C)NC(=O)[C@H](CCCCN)NC(=O)[C@H](CCCCN)NC(=O)[C@H](Cc2c[nH]cn2)NC1=O [BPC728, c(KKLKK(LK-CO-C3H7)HKKLQ)] (cyclo(HKKLQKKLKK([Leu-Lys-Butyryl]))) | 6.2 to 12.5 µM | 12.5 to 25 µM | >50 µM | 0% | bactericidal activity | <3.1 µM |  |  |  |  | 
melittin [mellitin, reference compound] |  |  |  |  |  |  | around 2 cm |  |  |  | 
CCCC(=O)NCCCC[C@H]1NC(=O)[C@H](CCC(N)=O)NC(=O)[C@H](CC(C)C)NC(=O)[C@H](CCCCN)NC(=O)[C@H](CCCCN)NC(=O)[C@H](Cc2ccccc2)NC(=O)[C@H](CCCCN)NC(=O)[C@H](CCCCN)NC(=O)[C@H](CC(C)C)NC(=O)[C@H](CCCCN)NC1=O [BPC706] (cyclo(FKKLQ[dK](Butyryl)KLKK)) | 3.1 to 12.5 µM and 6.2 to 12.5 µM | 6.2 to 12.5 µM | 25 to 50 µM | 35 ± 3% |  | 3.1 to 6.2 µM | 0–0.38 cm | 46 ± 3% | 3.1 to 6.2 µM |  | 
CCCCCC(=O)NCCCC[C@@H]1NC(=O)[C@H](CCC(N)=O)NC(=O)[C@H](CC(C)C)NC(=O)[C@H](CCCCN)NC(=O)[C@H](CCCCN)NC(=O)[C@@H](Cc2ccccc2)NC(=O)[C@H](CCCCN)NC(=O)[C@H](CCCCN)NC(=O)[C@H](CC(C)C)NC(=O)[C@H](CCCCN)NC1=O [BPC686, c(K(CO-nC5H11)KLKKfKKLQ)] (cyclo(K(Hexanoyl)KLKK[dF]KKLQ)) | 6.2 to 12.5 µM | 12.5 to 25 µM | 25 to 50 µM | 10 ± 0.2% | bactericidal activity | 12.5 to 25 µM |  | 14 ± 0.4% |  |  | 
CCCCCC(=O)NCCCC[C@@H]1NC(=O)[C@H](CCC(N)=O)NC(=O)[C@H](CC(C)C)NC(=O)[C@H](CCCCN)NC(=O)[C@H](CCCCN)NC(=O)[C@H](Cc2c[nH]cn2)NC(=O)[C@H](CCCCN)NC(=O)[C@H](CCCCN)NC(=O)[C@H](CC(C)C)NC(=O)[C@H](CCCCN)NC1=O [BPC688] (cyclo(HKKLQK(Hexanoyl)KLKK)) | 25 to 50 µM | 25 to 50 µM | >50 µM | 1 ± 2% |  | 12.5 to 25 µM | 0–0.38 cm | 1 ± 0.2% |  |  | 
CCCC(=O)NCCCC[C@@H]1NC(=O)[C@H](CCCCN)NC(=O)[C@H](CC(C)C)NC(=O)[C@H](CCCCN)NC(=O)[C@H](CCCCN)NC(=O)[C@H](CCC(N)=O)NC(=O)[C@H](CC(C)C)NC(=O)[C@H](CCCCN)NC(=O)[C@H](CCCCN)NC(=O)[C@H](Cc2ccccc2)NC1=O [BPC500, c(KKLKK(CO-C3H7)FKKLQ)] (cyclo(FKKLQKKLKK(Butyryl))) | <3.1 µM | 6.2 to 12.5 µM | 12.5 to 25 µM | 28 ± 5% | bactericidal activity | <3.1 µM |  | 38 ± 4% |  | < 12.5 µM | 
CCCCCC(=O)N[C@@H](CCCCN)C(=O)N[C@@H](CC(C)C)C(=O)NCCCC[C@@H]1NC(=O)[C@H](CCCCN)NC(=O)[C@H](CC(C)C)NC(=O)[C@H](CCCCN)NC(=O)[C@H](CCCCN)NC(=O)[C@H](CCC(N)=O)NC(=O)[C@H](CC(C)C)NC(=O)[C@H](CCCCN)NC(=O)[C@H](CCCCN)NC(=O)[C@H](Cc2c[nH]cn2)NC1=O [BPC676, c(KKLKK(LK-CO-nC5H11)HKKLQ)] (cyclo(HKKLQKKLKK([Leu-Lys-Hexanoyl]))) | 6.2 to 12.5 µM | 12.5 to 25 µM | 25 to 50 µM | 3 ± 0.3% | bactericidal activity | 3.1 to 6.2 µM |  |  |  |  | 
CCCC(=O)NCCCC[C@@H]1NC(=O)[C@H](CCCCN)NC(=O)[C@H](CCC(N)=O)NC(=O)[C@H](CC(C)C)NC(=O)[C@H](CCCCN)NC(=O)[C@H](CCCCN)NC(=O)[C@@H](Cc2ccccc2)NC(=O)[C@H](CCCCN)NC(=O)[C@H](CCCCN)NC(=O)[C@H](CC(C)C)NC1=O [BPC714, c(KK(CO-C3H7)LKKfKKLQ)] (cyclo(KK(Butyryl)LKK[dF]KKLQ)) | 12.5 to 25 µM | 25 to 50 µM | 25 to 50 µM | 3 ± 1% | bactericidal activity | 6.2 to 12.5 µM |  | 3 ± 0.5% |  |  | 
CCCCCC(=O)NCCCC[C@H]1NC(=O)[C@H](CCCCN)NC(=O)[C@H](CC(C)C)NC(=O)[C@H](CCCCN)NC(=O)[C@H](CCCCN)NC(=O)[C@H](CCC(N)=O)NC(=O)[C@H](CC(C)C)NC(=O)[C@H](CCCCN)NC(=O)[C@H](CCCCN)NC(=O)[C@@H](Cc2ccccc2)NC1=O [BPC632, c(KKLKk(CO-nC5H11)fKKLQ)] (cyclo(KKLK[dK](Hexanoyl)[dF]KKLQ)) | 25 to 50 µM | 12.5 to 25 µM | 25 to 50 µM | 21 ± 13% |  | 12.5 to 25 µM |  | 22 ± 10% |  |  | low active
